{
  "source": "patent US11058696B2",
  "about": "“Substituted bicyclic compounds” (BRISTOL-MYERS SQUIBB COMPANY, priority 2014, dated 2021)",
  "key": {"[1]": {"target": "S1P1 (membranes prepared from S1P1/CHO cells) (Homo sapiens (Human), UniProt P21453)", "sequence (P21453 whole entry)": "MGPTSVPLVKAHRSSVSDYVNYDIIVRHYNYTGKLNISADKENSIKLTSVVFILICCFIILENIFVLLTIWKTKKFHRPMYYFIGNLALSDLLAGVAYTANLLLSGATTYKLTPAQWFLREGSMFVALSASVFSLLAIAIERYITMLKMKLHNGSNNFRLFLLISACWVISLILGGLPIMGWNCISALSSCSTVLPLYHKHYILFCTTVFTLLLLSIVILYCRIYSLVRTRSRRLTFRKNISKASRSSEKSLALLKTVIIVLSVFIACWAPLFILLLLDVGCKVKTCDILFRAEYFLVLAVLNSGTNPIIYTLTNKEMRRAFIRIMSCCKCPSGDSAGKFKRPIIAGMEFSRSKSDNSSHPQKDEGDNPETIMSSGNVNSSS", "experiment": "Receptor [35S] GTPγS Binding Assay (S1P1 GTPγS)", "type": "biochemical", "conditions": "GTPγS S1P1 versus GTPγS S1P3 binding assays", "procedure": "Receptor [^35S] GTPγS Binding Assays: (S1P1 GTPγS/S1P3 GTPγS)\nCompounds were loaded in a 384 Falcon v-bottom plate (0.5 μl/well in a 11 point, 3-fold dilution). Membranes prepared from S1P1/CHO cells or EDG3-Gal5-bla HEK293T cells (EDG3 equivalent S1P3) were added to the compound plate ([…], final protein 3 μg/well) with MULTIDROP®. [^35S]GTP (1250 Ci/mmol, Perkin Elmer) was diluted in assay buffer: 20 mM HEPES, pH7.5, 10 mM MgCl2, 150 mM NaCl, 1 mM EGTA (ethylene glycol tetraacetic acid), 1 mM DTT (Dithiothreitol), 10 μM GDP, 0.1% fatty acid free BSA, and 10 μg/ml Saponin to 0.4 nM. 40 μl of the [^35S] GTP solution was added to the compound plate with a final concentration of 0.2 nM. The reaction was kept at room temperature for 45 min. At the end of incubation, all the mixtures in the compound plate were transferred to Millipore 384-well FB filter plates via the VELOCITY11® Vprep liquid handler. The filter plate was washed with water 4 times by using the manifold Embla plate washer and dried at 60° C. for 45 min. MicroScint 20 scintillation fluid (30 μl) was added to each well for counting on the Packard TOPCOUNT®.\nA larger value for the GTPγS S1P3 EC50 value indicated less activity in the GTPγS S1P3 binding assay."}, "[2]": {"tested_on": "spontaneous lupus, anti-dsDNA antibodies and kidney histology", "experiment": "MRL/lpr Lupus Model", "type": "in vivo", "conditions": "MRL/lpr mice, p.o. daily", "from_the_text": "MRL/lpr Lupus Model: MRL/lpr is a spontaneous model of lupus. Male MRL/lpr mice (Jackson Laboratory) at the age of 12-14 weeks were enrolled for the study (N=12). […] Mice were bled every other week for anti-dsDNA antibodies measured by ELISA using pooled serum from diseased MRL/lpr mice as a positive comparator in each assay. The data were expressed in arbitrary units as a ratio of the titer of the test serum to the titer of the pooled MRL/lpr immune serum. At the end of study, one kidney was collected into 10% neutral buffered formalin and ZincTris fixatives. Fixed tissues were processed into paraffin blocks, sectioned at 3 μm, and stained with H&E or PASH. Kidney sections were graded using following criteria: Glomerular Damage: 1. Mesangial matrix thickening, cell proliferation, 2. Crescent formation, cellular deposits/casts in Bowman's space, 3. Cellular infiltration, mononuclear cells in glomerular tufts, 4. Fibrosis of Bowman's capsule. Tubular damage: 1. Infiltration of mononuclear cells, 2. Severity of tubular damage, 3. Protein casts. Tubulo-interstitial damage: 1. Fibrosis, 2. Infiltration of mononuclear cells. Each subcategory was assigned a score from 0-4, with the scores for glomerular indices representing the mean from 20 glomeruli per kidney. The total score for each mouse was the sum of the above 9 subcategories, with the highest possible score=36."}},
  "data": [
    {"smiles": "COCCCCCC1CCc2cc([C@H]3CC[C@](N)(COP(=O)(O)O)C3)ccc2C1", "note": "(single isomer, unassigned) [Example 689]", "values": [
      {"measurement": "activity as an agonist of S1P1 and selectivity over S1P3", "setting": "[1]", "result": "possessed activity as an agonist of S1P1 and is selective over S1P3"}
    ]},
    {"smiles": "COc1ccccc1CC[C@@H]1CCc2cc([C@H]3CC[C@](N)(CO)C3)ccc2C1", "note": "[Example 681, ((1R,3S)-1-amino-3-((S)-6-(2-methoxyphenethyl)-5,6,7,8-tetrahydronaphthalen-2-yl)cyclopentyl)methanol]", "values": [
      {"measurement": "inhibition of disease progression as measured by anti-dsDNA titers and kidney histology", "setting": "[2]", "result": "showed inhibition of disease progression"}
    ]}
  ]
}
